The text below walks through data of patent US8524770B2, “Wool care composition” (Director General, Defence Research & Development …, priority 2009, dated 2013).

Experiment [1] relates to clothes moths. Particulars: Abbott & Billings 1935, Journal of Economic Entomology; cited from earlier work.
Experiment [2] concerns clothes moths. Briefly: Protection of woollen articles / repellency against clothes moths. Type of experiment: in vivo. The settings on record: confirmed by the present inventors. The source says: Conventionally naphthalene or Paradichlorobenzene is known in the art to be used to protect woollen and fur-feather lined articles from insect damage during their storage. But these above compounds are ineffective against clothes moths and thus unable to provide protection to the woollen items as established by Abbott & Billings of USA in 1935 and published their work in the Journal of Economic Entomology on page 493-495 as entitled “Further work showing that Paradichlorobenzene, Naphthalene and cedar oils are ineffective as repellents against clothes moth”. The ineffectiveness of the naphthalene balls in protection of woollen articles from insect pests is also confirmed by the present inventors.

For the compound `Clc1ccc(Cl)cc1` [Paradichlorobenzene], in experiment [1], the “Effectiveness as repellent against clothes moths” value is listed as “ineffective”. Consider `c1ccc2ccccc2c1` [naphthalene], for which the “Protection of woollen articles from insect pests” value in experiment [2] was “ineffectiveness”. In addition, the “Effectiveness as repellent against clothes moths” value in experiment [1] is reported as “ineffective”.
